Several values for one entry are separate records, joined by “and”; a condition that tells them apart may be missing. Equal values may be shown once. Read-outs that look alike come from different tables or passages of the source.
How the values were obtained:
Assay type in all cases: cell-based
[1] = tested on: p53 luciferase transcriptional reporter in Huh7 cells; assay: p53 luciferase reporter assay; settings: for p53 luciferase reporter signal (normalized), replicates: Huh7
Experimental: (§1) Huh7 and MFE319 cell lines stably expressing a p53 reporter (Addgene, 90363)[59] were generated. Cells were plated in 384-well plates (1,500 cells per well) and treated with varying concentrations of compound. Then, 16 h after treatment, firefly luciferase substrate was added to the cells and luminescence was monitored using an EnVision 2105 multimode plate reader.

[2] = tested on: p53 luciferase transcriptional reporter in MFE319 cells; assay: p53 luciferase reporter assay; settings: for p53 luciferase reporter signal (normalized), replicates: MFE319
Experimental: as §1

[3] = viability with doxycycline-inducible construct; settings: human, dox 0, read-out: mean_norm (normalized viability)
Experimental: (§2) Cells were plated in 384-well plates (typically 1,500 cells per well) with varying concentrations of compounds, with a total volume of 50 μl per well. CTG reagent was added (25 μl) to the solutions, mixed and read out using an EnVision 2105 multimode plate reader.

[4] = tested on: 293T cells expressing a dox inducible Halo–p53-Y220C ΔTAD–mCherry; assay: viability with doxycycline-inducible construct
Experimental: as §2

[5] = tested on: Calu-1 cells stably expressing Halo–p53-R273H (FL)–mCherry versus parental Calu-1 cells; assay: flow-cytometry growth competition; settings: 7 days
Experimental: (§3) Cells with and without a fluorescent marker (for example, Halo–p53–mCherry) were mixed and the resulting solution was plated in six-well plates or 10-cm dishes at low density; compound was added at varying concentrations. After reaching confluence, cells were passaged and retreated with compound if needed. Otherwise, cells were trypsinized, washed and resuspended in complete growth medium in 96-well plates or tubes for flow cytometry. Untreated cell mixtures were used to establish gates separating the fluorophore^+/− populations. Analysis was conducted on a CytoFLEX LX flow cytometer.

[6] = tested on: MFE319 cells stably expressing sgTP53–Cas9–EGFP versus parental MFE319 cells; assay: flow-cytometry growth competition
Experimental: as §3

[7] = tested on: Halo–p53-Y220C ΔTAD–mCherry 293T cells versus parental 293T cells; assay: flow-cytometry growth competition; settings: for EC50: Homo sapiens, HEK-293T; for normalized_mCherry_percentage: Y220C, day 8, normalized to DMSO
Experimental: as §3

[8] = CellTiter-Glo cell viability; settings: human, BxPC-3 cells, BXPC3, 4 day, read-out: mean_norm (normalized viability)
Experimental: as §2

[9] = tested on: PLK1 and p53-Y220C localization in cotransfected 293T cells; assay: colocalization assay, live-cell imaging; settings: nonmitotic cells
Experimental: The 293T cells were seeded in six-well plates and cotransfected with Halo–p53-Y220C ΔTAD–mCherry and mEGFP–PLK1–SmBiT (1:1). After 1 day, the cells were passaged into 96-well plates in FluoroBrite DMEM for microscopy. The cells were imaged with the Opera Phenix Plus high-content screening system (PerkinElmer) before compound treatment and as a time series following compound treatment.

## CC[C@@H]1C(=O)N(C)c2cnc(Nc3ccc(C(=O)NCCOCCOCCOCCOCCC(=O)N4CCC(Nc5cccc6c5cc(C#CCNc5ccc(S(C)(=O)=O)cc5OC)n6CC(F)(F)F)CC4)cc3OC)nc2N1C1CCCC1 [p53-01, PMV6-PEG4-BI2536]
[1]; 16 h, PMV6 at doses of 1.25–10 μM
  induction of p53 reporter: no such effect
[1]; log Concentration (pM) 4.59176
  p53 luciferase reporter signal (normalized), replicates: 0.9363 (2×) and 1.029 and 0.989 (2×) and 0.8835
[1]; log Concentration (pM) 4.89279
  p53 luciferase reporter signal (normalized), replicates: 1.081 and 0.9758 and 1.0022 and 1.095 and 1.147 and 0.9363
[1]; log Concentration (pM) 5.19382
  p53 luciferase reporter signal (normalized), replicates: 0.8967 and 0.9231 and 0.9363 and 0.9758 and 1.095 and 1.081
[1]; log Concentration (pM) 5.49485
  p53 luciferase reporter signal (normalized), replicates: 1.015 and 0.9363 and 1.029 and 1.0022 and 1.108 and 1.095
[1]; log Concentration (pM) 5.79588
  p53 luciferase reporter signal (normalized), replicates: 1.055 (2×) and 1.095 and 0.9495 and 0.9231 (2×)
[1]; log Concentration (pM) 6.09691
  p53 luciferase reporter signal (normalized), replicates: 0.9099 and 0.9626 and 0.9231 and 1.0022 and 0.9758 and 0.8835
[1]; log Concentration (pM) 6.39794
  p53 luciferase reporter signal (normalized), replicates: 0.9495 and 1.029 and 0.9758 and 1.0022 and 1.015 and 1.042
[1]; log Concentration (pM) 6.69897
  p53 luciferase reporter signal (normalized), replicates: 0.9363 and 0.9231 and 1.042 and 1.095 and 1.068 and 0.8835
[1]; log Concentration (pM) 7
  p53 luciferase reporter signal (normalized), replicates: 0.9363 and 1.0022 (3×) and 1.015 and 0.9758
[2]; 16 h
  induction of p53 reporter: no induction of luciferase activity
[2]; log Concentration (pM) 4.59176
  p53 luciferase reporter signal (normalized), replicates: 0.9836 and 1.068 and 1.04 and 1.096 and 1.012 and 0.9977
[2]; log Concentration (pM) 4.89279
  p53 luciferase reporter signal (normalized), replicates: 1.026 and 1.11 and 0.9977 and 0.9555 and 1.04 and 1.096
[2]; log Concentration (pM) 5.19382
  p53 luciferase reporter signal (normalized), replicates: 0.9836 and 1.11 and 1.04 and 1.082 (2×) and 1.096
[2]; log Concentration (pM) 5.49485
  p53 luciferase reporter signal (normalized), replicates: 0.9696 and 0.9977 and 1.012 (2×) and 1.082 and 1.04
[2]; log Concentration (pM) 5.79588
  p53 luciferase reporter signal (normalized), replicates: 0.9696 and 1.096 (3×) and 1.068 and 0.9274
[2]; log Concentration (pM) 6.09691
  p53 luciferase reporter signal (normalized), replicates: 1.152 and 1.068 and 1.012 (2×) and 1.124 and 1.04
[2]; log Concentration (pM) 6.39794
  p53 luciferase reporter signal (normalized), replicates: 0.9977 (2×) and 1.068 and 1.096 and 1.012 and 0.9836
[2]; log Concentration (pM) 6.69897
  p53 luciferase reporter signal (normalized), replicates: 1.012 (4×) and 0.9977 and 1.04
[2]; log Concentration (pM) 7
  p53 luciferase reporter signal (normalized), replicates: 1.054 and 0.9836 (2×) and 1.082 (2×) and 0.8431
[3]; Concentration 156.25
  viability: 99.3%
[3]; Concentration 312.5
  viability: 95.6%
[3]; Concentration 625
  viability: 95.7%
[3]; Concentration 1250
  viability: 95.8%
[3]; Concentration 2500
  viability: 77.5%
[3]; Concentration 5000
  viability: 60.1%
[4]; dox 0, 100, 1000 ng/mL, 4 days
  change of potency upon doxycycline induction: approximately twofold
[4]; dox 0, Concentration 39.0625
  mean_norm (normalized viability): 0.9911
[4]; dox 0, Concentration 78.125
  mean_norm (normalized viability): 0.9922
[4]; dox 0, Concentration 10000
  mean_norm (normalized viability): 0.4681
[4]; dox 100, Concentration 39.0625
  mean_norm (normalized viability): 0.9915
[4]; dox 100, Concentration 78.125
  mean_norm (normalized viability): 1.002
[4]; dox 100, Concentration 156.25
  mean_norm (normalized viability): 0.9543
[4]; dox 100, Concentration 312.5
  mean_norm (normalized viability): 0.9412
[4]; dox 100, Concentration 625
  mean_norm (normalized viability): 0.8872
[4]; dox 100, Concentration 1250
  mean_norm (normalized viability): 0.7055
[4]; dox 100, Concentration 2500
  mean_norm (normalized viability): 0.6021
[4]; dox 100, Concentration 5000
  mean_norm (normalized viability): 0.3858
[4]; dox 100, Concentration 10000
  mean_norm (normalized viability): 0.3055
[4]; dox 1000, Concentration 39.0625
  mean_norm (normalized viability): 0.9926
[4]; dox 1000, Concentration 78.125
  mean_norm (normalized viability): 1.004
[4]; dox 1000, Concentration 156.25
  mean_norm (normalized viability): 1.0052
[4]; dox 1000, Concentration 312.5
  mean_norm (normalized viability): 0.8955
[4]; dox 1000, Concentration 625
  mean_norm (normalized viability): 0.8604
[4]; dox 1000, Concentration 1250
  mean_norm (normalized viability): 0.7628
[4]; dox 1000, Concentration 2500
  mean_norm (normalized viability): 0.5571
[4]; dox 1000, Concentration 5000
  mean_norm (normalized viability): 0.3298
[4]; dox 1000, Concentration 10000
  mean_norm (normalized viability): 0.194
[5]
  activity in competition: did not observe any activity
[6]; Concentration (pM) 156250
  merge_avg (growth competition, sheet 4H): 0.9416
[6]; Concentration (pM) 312500
  merge_avg (growth competition, sheet 4H): 0.9268
[6]; Concentration (pM) 600000
  merge_avg (growth competition, sheet 4H): 0.9517
[6]; Concentration (pM) 800000
  merge_avg (growth competition, sheet 4H): 1.131
[6]; Concentration (pM) 1000000
  merge_avg (growth competition, sheet 4H): 1.205
[6]; Concentration (pM) 1100000
  merge_avg (growth competition, sheet 4H): 1.344
[6]; Concentration (pM) 1250000
  merge_avg (growth competition, sheet 4H): 1.624
[6]; day 9, p53-01 at doses between 800 nM and 1.25 μM
  enrichment of EGFP^+ (TP53-knockout) population: significantly enrich an EGFP^+ population
[7]; 1 uM, 8 days, untreated 39.76
  mCherry_percent: 6.93%
[7]; 8-day competition
  Emax, decline in the mCherry^+ fraction: 21.5 fold
[7]; 192 h, 8-day competition, read-out: EC50 growth competition
  EC50: 443 nM
[7]; 240 h, growth competition analyzed on day 10, n = 3, read-out: Competition EC50
  EC50: 850 nM
[7]; 62.5 nM
  normalized_mCherry_percentage: 97.27%
[7]; 125 nM
  normalized_mCherry_percentage: 95.36%
[7]; 250 nM
  normalized_mCherry_percentage: 82.43%
[7]; 500 nM
  normalized_mCherry_percentage: 42.51%
[7]; 1 uM
  normalized_mCherry_percentage: 16.67%
[7]; 2 uM
  normalized_mCherry_percentage: 4.655%
[7]; dosed between 250 nM and 2 μM, 8-day
  selection in growth competition: strong selection against p53-Y220C^+ cells
[7]; p53-01 250 nM, untreated 28.89, 29.94, 29.02
  mCherry^+ percentage in competition, replicate: 3.07 and 3.6 and 3.2
[7]; p53-01 alone at 250 nM
  decline in mCherry^+ percentage: 8.9 fold
[8]; Concentration 39.0625
  viability at 4 day: 96%
[8]; Concentration 78.125
  viability at 4 day: 94.9%
[8]; Concentration 156.25
  viability at 4 day: 99%
[8]; Concentration 312.5
  viability at 4 day: 91%
[8]; Concentration 10000
  viability at 4 day: 44%
[8]; Concentration 20000
  viability at 4 day: 25.6%
[9]
  protein localization: PLK1 nuclear enrichment and colocalization with p53-Y220C
